The values that follow come from US20220105113A1, “CYLODIMER OF DEHYDROSALICORTIN AND DERIVATIVES THEREOF ISOLATED FROM PLANT OF THE GENUS SALIX FOR USE IN CANCER THERAPY” (ROTHAMSTED RESEARCH LTD, priority 2019, published 2022).

What all share (type): cell-based
Assay [1] relates to UKF-NB-3, COLO-680N and COLO-704. The assay can be described thus: Replicated IC50 determination (MTT) on three selected lines. The settings on record: range of means over UKF-NB-3, COLO-680N and COLO-704. The procedure: (§1) The MYCN-amplified neuroblastoma cell line UKF-NB-3 was established from a stage 4 neuroblastoma patient (Kotchetkov et al., 2005). Also tested was the vincristine-resistant UKF-NB-3 sub-line UKF-NB-3^rVCR (Rothwell et al., 2010) (adapted to grow in the presence of vincristine 10 ng/mL). At a concentration of 20 μg/mL of miyabeacin, the cell viability, relative to non-treated cells, after 120 hours was 0% for UKF-NB-3 and 4.22±2.89% for the vincristine resistant UKF-NB-3^rVCR line. The oesophageal cancer cell line COLO-680N was obtained from ATCC (Manassas, Va., USA) and the ovarian cancer cell line COLO-704 from DSMZ (Braunschweig, Germany). All cell lines were propagated in Iscove's modified Dulbecco's medium (IMDM) supplemented with 10% FCS, 100 IU/ml penicillin and […] streptomycin at 37° C. Cells were routinely tested for mycoplasma contamination and authenticated by short tandem repeat profiling. Cell viability was determined by the 3-(4,5-dimethylthiazol-2-yl)-2,5-diphenyltetrazolium bromide (MTT) dye reduction assay after 120 h incubation as described previously (Michaelis et al., 2015). […] Plates were then read at 600 nm. The relative viability was determined as the relative reduction of the optical density relative to an untreated cell control (=100%).

The next assay deals with BT-474. In words: MTT dye reduction cell viability assay, BT-474 breast cancer cell line. The settings on record: Homo sapiens, BT-474, MTT 120 h, read-out: Miyabeacin IC50. How it is done:
(§2) The activity of miyabeacin was tested against a range of cancer cell lines including those in neuroblastoma and breast, oesophageal and ovarian cancers (Table 10).
as §1, with “Cells were routinely tested for mycoplasma contamination and authenticated by short tandem repeat profiling.” left out

The next assay deals with UKF-NB-3^rVCR. The assay can be described thus: MTT dye reduction cell viability assay, vincristine-resistant UKF-NB-3 sub-line. The note with it: 20 μg/mL, after 120 hours, vincristine resistant UKF-NB-3^rVCR; read-out: cell viability, relative to non-treated cells. The procedure:
as §1
A general note: Tetrazolium dyes change colour on reduction, which living cells bring about.

The next assay has as its system MCF-7. In words: MTT dye reduction cell viability assay, MCF-7 breast cancer cell line. The settings on record: Homo sapiens, MCF7, MCF-7, MTT 120 h, read-out: Miyabeacin IC50. The procedure: as §2
as §1, with “Cells were routinely tested for mycoplasma contamination and authenticated by short tandem repeat profiling.” left out

A further assay deals with EFO-21. The assay can be described thus: MTT dye reduction cell viability assay, EFO-21 ovarian cancer cell line. The note with it: Homo sapiens, EFO-21, MTT 120 h, read-out: Miyabeacin IC50. The procedure: as §2
as §1, with “Cells were routinely tested for mycoplasma contamination and authenticated by short tandem repeat profiling.” left out

In the next assay the test system is UKF-NB-3. The assay can be described thus: MTT dye reduction cell viability assay, UKF-NB-3 neuroblastoma cell line. The procedure:
as §2
(§3) The MYCN-amplified neuroblastoma cell line UKF-NB-3 was established from a stage 4 neuroblastoma patient (Kotchetkov et al., 2005). Also tested was the vincristine-resistant UKF-NB-3 sub-line UKF-NB-3^rVCR (Rothwell et al., 2010) (adapted to grow in the presence of vincristine 10 ng/mL). At a concentration of 20 μg/mL of miyabeacin, the cell viability, relative to non-treated cells, after 120 hours was 0% for UKF-NB-3 and 4.22±2.89% for the vincristine resistant UKF-NB-3^rVCR line. The oesophageal cancer cell line COLO-680N was obtained from ATCC (Manassas, Va., USA) and the ovarian cancer cell line COLO-704 from DSMZ (Braunschweig, Germany). All cell lines were propagated in Iscove's modified Dulbecco's medium (IMDM) supplemented with 10% FCS, 100 IU/ml penicillin and […] streptomycin at 37° C. Cells were routinely tested for mycoplasma contamination and authenticated by short tandem repeat profiling. Cell viability was determined by the 3-(4,5-dimethylthiazol-2-yl)-2,5-diphenyltetrazolium bromide (MTT) dye reduction assay after 120 h incubation as described previously (Michaelis et al., 2015). Briefly, 5000 cells (suspended in 100 μL IMDM supplemented with 10% FCS, 100 IU/ml penicillin and […] streptomycin) were incubated in 96-well plates at 37° C. and 5% CO2 in the absence or presence of varying compound concentrations for 120 h. Then, 25 μL of MTT solution ([…] dissolved in PBS) were added for 4 h. This was followed by the addition of […] of 20% sodium dodecyl sulphate (50:50 purified water/DMF) solution adjusted to pH 4.7 for an additional 4 h in order to lyse cells and dissolve formazan precipitates. Plates were then read at 600 nm. The relative viability was determined as the relative reduction of the optical density relative to an untreated cell control (=100%).

A further assay concerns COLO-704. In words: MTT dye reduction cell viability assay, COLO-704 ovarian cancer cell line. The procedure:
as §2, §3

A further assay deals with COLO-680N. In words: MTT dye reduction cell viability assay, COLO-680N oesophageal cancer cell line. The settings on record: Homo sapiens. The procedure:
as §2, §3

Values after ≈ are worked out from the molar mass of the structure shown. Where two headings read alike, the source gives them in different places.

Turning to `O=C(OCc1ccccc1O[C@H]1OC(CO)[C@H](O)C(O)C1O)[C@@]1(O)C(=O)C2C=CC1C1C2C=CC(=O)[C@]1(O)C(=O)OCc1ccccc1O[C@H]1OC(CO)[C@H](O)C(O)C1O` (stereo partly drawn) [miyabeacin], the IC50 in assay [1] was 17.2 to 40.2 µM; with BT-474, 27 µg/mL (≈ 32 µM); in the assay with MCF-7, 2.19 µg/mL (≈ 2.59 µM); in the assay on EFO-21, 12.7 µg/mL (≈ 15 µM); with UKF-NB-3 (UKF-NB-3, expt 1, read-out: miyabeacin IC50 concentration expt 1), 7.12 µg/mL; with UKF-NB-3 (UKF-NB-3, expt 2, read-out: miyabeacin IC50 concentration expt 2), 21 µg/mL. In addition, the IC50 with UKF-NB-3 (UKF-NB-3, expt 3, read-out: miyabeacin IC50 concentration expt 3) came out at 15.3 µg/mL; with UKF-NB-3 (UKF-NB-3, mean of 3 expts, read-out: IC50 mean), 17.2 µM; with UKF-NB-3 (UKF-NB-3, mean of 3 expts, read-out: miyabeacin IC50 concentration mean), 14.5 µg/mL; with UKF-NB-3 (neuroblastoma, UKF-NB-3, MTT 120 h, read-out: Miyabeacin IC50), 7.12 µg/mL; in the assay with COLO-704 (COLO-704, expt 1, read-out: miyabeacin IC50 concentration expt 1), 20.2 µg/mL; with COLO-704 (COLO-704, expt 2, read-out: miyabeacin IC50 concentration expt 2) it was 32.4 µg/mL. Also, the IC50 with COLO-704 (COLO-704, expt 3, read-out: miyabeacin IC50 concentration expt 3) is 50.8 µg/mL; in the assay with COLO-704 (COLO-704, mean of 3 expts, read-out: IC50 mean), 40.2 µM; with COLO-704 (COLO-704, mean of 3 expts, read-out: miyabeacin IC50 concentration mean), 34.5 µg/mL; in the assay on COLO-704 (ovarian, COLO-704, MTT 120 h, read-out: Miyabeacin IC50) it was 20.2 µg/mL; in the assay on COLO-680N (expt 1, read-out: miyabeacin IC50 concentration expt 1) it was 5.08 µg/mL; in the assay with COLO-680N (expt 2, read-out: miyabeacin IC50 concentration expt 2), 15.1 µg/mL. The IC50 amounted to 51.5 µg/mL in the assay on COLO-680N (expt 3, read-out: miyabeacin IC50 concentration expt 3); 28.3 µM with COLO-680N (mean of 3 expts, read-out: IC50 mean); 23.9 µg/mL with COLO-680N (mean of 3 expts, read-out: miyabeacin IC50 concentration mean); 5.08 µg/mL in the assay with COLO-680N (oesophageal, MTT 120 h, read-out: Miyabeacin IC50). Moreover, the viability at 20 µg/mL in the assay with UKF-NB-3^rVCR turned out to be 4.22 ± 2.89%; in the assay with UKF-NB-3 (20 μg/mL, after 120 hours, UKF-NB-3, read-out: cell viability, relative to non-treated cells) it was 0%.

The term viability denotes the share of living cells, or the viability signal relative to a control.
